Assays:
MDA-MB-231 [1] = experiment: Dark cytotoxicity against human MDA-MB-231 cells assessed as inhibition of cell viability incubated for 24 hrs by CellTiter Blue assay; format: cell-based; settings: MDA-MB-231, 24 h
[2] = Drug uptake in athymic mouse xenografted with HNSCC cells at 0.1 mM administered iv measured up to 4 days post-drug administration by IVIS spectrum in vivo fluorescence imaging analysis; format: ADME, organism-based; settings: 96 h, 100 µM
MCF7 [3] = experiment: Dark cytotoxicity against human MCF7 cells assessed as inhibition of cell viability incubated for 24 hrs by CellTiter Blue assay; format: cell-based; settings: MCF7, 24 h
MDA-MB-231 [4] = experiment: Phototoxicity against human MDA-MB-231 cells assessed as inhibition of cell viability incubated with compound for 2 hrs followed by irradiation with 0.92 mW cm'-2 light and measured after overnight incubation by CellTiter Blue assay; format: functional, cell-based; settings: MDA-MB-231, light or radiation study
MCF7 [5] = experiment: Phototoxicity against human MCF7 cells assessed as inhibition of cell viability incubated with compound for 2 hrs followed by irradiation with 0.92 mW cm'-2 light and measured after overnight incubation by CellTiter Blue assay; format: functional, cell-based; settings: MCF7, light or radiation study
[6] = Time dependent drug uptake in human MDA-MB-231 cells at 10 uM incubated up to 24 hrs by spectrofluorometric analysis; format: ADME, cell-based; settings: mda-mb-231, 24 h
[7] = Drug uptake in human MCF7 cells at 1 uM incubated for 24 hrs by fluorescence imaging analysis; format: ADME, cell-based; settings: mcf7, 24 h
[8] = Time dependent drug uptake in human MCF7 cells at 10 uM incubated up to 24 hrs by spectrofluorometric analysis; format: ADME, cell-based; settings: mcf7, 24 h
[9] = Drug uptake in human MDA-MB-231 cells at 1 uM incubated for 24 hrs by fluorescence imaging analysis; format: ADME, cell-based; settings: mda-mb-231, 24 h

Drug uptake [2]: Active
Drug uptake [6]: Active
Drug uptake [7]: Active
Drug uptake [8]: Active
Drug uptake [9]: Active
Compound: CN1CC2c3nc(c(-c4c(F)c(F)c(S[C@@H]5O[C@H](CO)[C@@H](O)[C@H](O)[C@H]5O)c(F)c4F)c4ccc([nH]4)c(-c4c(F)c(F)c(S[C@@H]5O[C@H](CO)[C@@H](O)[C@H](O)[C@H]5O)c(F)c4F)c4nc(c(-c5c(F)c(F)c(S[C@@H]6O[C@H](CO)[C@@H](O)[C@H](O)[C@H]6O)c(F)c5F)c5ccc([nH]5)c3-c3c(F)c(F)c(S[C@@H]5O[C@H](CO)[C@@H](O)[C@H](O)[C@H]5O)c(F)c3F)C=C4)C2C1 (some centres undefined)
IC50 (MDA-MB-231 [1]): > 100 µM
IC50 (MCF7 [3]): > 100 µM
IC50 (MDA-MB-231 [4]): 1 to 2 µM
IC50 (MCF7 [5]): 1 to 2 µM
